PMC3003779 (Chemistry & biology, 2010)

How the values were obtained:
other serine hydrolases = assay: competitive activity-based protein profiling, ex vivo after i.p. dosing; format: in vivo, mouse; details: 1 h
SHR = assay: mean arterial pressure and heart rate in chronically cannulated conscious SHR; format: in vivo, rat; details: 0.5 mg/kg i.v.
SHR and WKY rats = assay: hemodynamic analysis with pressure-volume microcatheter; format: in vivo, rat; details: 1 mg/kg i.v., 20 min
CB2 receptors = molecular target: T1, CB2 receptors (Rattus norvegicus, UniProt Q9QZN9); assay: radioligand displacement, [3H]CP,55940, rat spleen membranes
T1 sequence (Q9QZN9 1-360): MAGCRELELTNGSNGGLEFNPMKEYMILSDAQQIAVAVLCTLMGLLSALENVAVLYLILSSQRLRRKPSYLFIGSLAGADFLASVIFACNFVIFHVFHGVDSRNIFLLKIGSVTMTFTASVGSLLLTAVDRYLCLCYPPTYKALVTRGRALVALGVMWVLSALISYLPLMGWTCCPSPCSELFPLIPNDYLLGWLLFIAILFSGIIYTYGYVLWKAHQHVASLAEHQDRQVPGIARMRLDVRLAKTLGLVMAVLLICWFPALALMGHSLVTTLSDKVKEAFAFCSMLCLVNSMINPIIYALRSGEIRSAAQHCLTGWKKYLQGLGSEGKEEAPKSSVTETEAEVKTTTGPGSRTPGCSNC

CB1 receptor = CB1 receptor (Rattus norvegicus, UniProt P20272); assay: radioligand displacement, [3H]CP,55940, rat forebrain membranes
Chain of CB1 receptor (P20272 whole entry): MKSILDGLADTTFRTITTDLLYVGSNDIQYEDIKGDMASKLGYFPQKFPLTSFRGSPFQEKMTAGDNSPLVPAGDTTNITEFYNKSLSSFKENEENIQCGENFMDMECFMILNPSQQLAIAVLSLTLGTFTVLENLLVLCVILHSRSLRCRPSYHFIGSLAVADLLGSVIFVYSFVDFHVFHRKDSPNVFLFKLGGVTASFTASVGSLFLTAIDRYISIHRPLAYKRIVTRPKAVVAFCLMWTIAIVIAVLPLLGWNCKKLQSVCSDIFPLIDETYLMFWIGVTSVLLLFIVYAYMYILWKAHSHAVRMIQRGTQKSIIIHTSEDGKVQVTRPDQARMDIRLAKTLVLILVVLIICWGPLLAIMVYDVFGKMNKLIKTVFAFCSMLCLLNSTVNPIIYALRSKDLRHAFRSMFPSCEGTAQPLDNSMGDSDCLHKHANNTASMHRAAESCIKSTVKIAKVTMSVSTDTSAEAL

Question: What does the source list for O=S(=O)(F)CCCCCc1ccc(O)cc1 [AM3506, 5-(4-hydroxyphenyl)pentanesulfonyl fluoride]?
Answer: activity of other serine hydrolases in brain (ABPP) (other serine hydrolases; mouse brain, 0.1 mg/kg i.p.): no change; liver unidentified ~58kD protein activity (ABPP) (other serine hydrolases; mouse liver, 1 mg/kg i.p.): partial inhibition; duration of MAP and HR effects (SHR; awake SHR, n = 5): up to 60 minutes; MAP after treatment (SHR; conscious SHR, from 176 ±4, n=4): 127±5 mmHg; HR after treatment (SHR; conscious SHR, from 355±6, n=4): 286±22 bpm; duration of MAP and HR effects (SHR; conscious SHR, n=4): up to an hour; cardiac contractility (ESPVR) (SHR and WKY rats; SHR): marked decrease; cardiac output (CO) (SHR and WKY rats; SHR): decreases; dP/dtmax (SHR and WKY rats; SHR): decreases; left ventricular end-systolic pressure (LVESP) (SHR and WKY rats; SHR): decreases; LVESP, dP/dtmax, TPR and CO (SHR and WKY rats; normotensive WKY): No changes; Ki (CB2 receptors): 0.192 µM; Ki (CB1 receptor): 5.77 µM
